From US20240294465A1, “NOVEL ANTI-FIBROTIC DRUGS” (HELMHOLTZ ZENTRUM MUNCHEN - DEUTSCHES FORSCHUNGSZENTRUM FUR …, priority 2021, published 2024)

Assays:
[1] = test system: collagen I, collagen V, fibulin 1, fibronectin, αSMA protein in phLFs; assay: Western blotting of ECM proteins and αSMA in phLFs (lysates and medium supernatants); type: cell-based, human
Procedure: Cells were scraped off the plastic dish directly into 200 μl ice-cold RIPA buffer containing 1× Roche complete mini protease inhibitor cocktail. After incubating the samples for 30 minutes on ice, insoluble material was removed by centrifugation at 14.000 g for 15 minutes at 4° C. and the supernatant was further processed. Samples were mixed with 50 mM Tris-HCl, pH 6.8, 100 mM DTT, 2% SDS, 1% bromphenol blue, and 10% glycerol, and proteins were separated using standard SDS-10% PAGE. For immunoblotting, proteins were transferred to PVDF (Millipore (Billerica, MA, (USA)), 0.45 μm or 0.2 μm) membranes, which were blocked with 5% milk in TBST (0.1% Tween 20 in TBS) and incubated with primary, followed by HRP-conjugated secondary antibodies over night at 4° C. and at room temperature for 1 hour, respectively. For immunoblotting the following primary antibodies were used: monoclonal mouse anticollagen type 5 (1 mg/mL) from […] (Cat #sc-166155), polyclonal rabbit anti-collagen type 3 (1 mg/mL) from Rockland (Cat #600-401-105), polyclonal rabbit anti-collagen type 1 (1 mg/mL) from Rockland (Cat #600-401-103-0.5), monoclonal mouse anti-fibulin 1 (1 mg/mL) from SantaCruz (Cat #sc-25281), polyclonal rabbit anti-fibronectin (1 mg/mL) from SantaCruz (Cat #sc-9068), and monoclonal mouse anti-p-actin-peroxidase (AC-15, Sigma, 1:10000). Goat anti-rabbit and goat anti-mouse IgG conjugated to horseradish peroxidase (Cell Signaling, 1:10000) were applied as secondary antibodies. CXCL/IL-8 concentrations were determined using Human IL-8/CXCL8 DuoSet ELISA (DY208-05) according to the manufacturer's protocol.

[2] = test system: ECM deposition of collagen I, collagen V and fibulin 1 by phLFs+TGFβ1; assay: 3D ECM deposition assay (collagen I, collagen V, fibulin 1), dose-response and live imaging; type: cell-based, human; conditions: phLFs+TGFβ1+EDHB
Procedure: phLFs were cultured in DMEM F-12 medium with 20% fetal bovine serum (FBS) and antibiotic supplement as mentioned above. Cells were seeded with 6000 cells/well in 384-well CellCarrier plates (Perkin Elmer, Cat #6007550). Following overnight incubation, cells were starved in serum-reduced medium (1% FBS with 0.1 mM 2-phosphoascorbate (Sigma, Cat #49752)) for 24 h. Afterwards, cells were treated with TGFβ1 (1 ng/ml) or vehicle, and additionally small molecules or appropriate vehicle controls were added. […] Fluorescenceconjugation of the collagen type 1 antibody was done by using the AlexaFluor-555 Protein Labeling Kit (Invitrogen, Cat #A20174) according to manufacturer's instructions. […]
Following fixation, the automated imaging was achieved by using aconfocal laser scanning microscope (LSM710, Zeiss) with automated focus detection for three-dimensional image acquisition (1024 px×1024 px×9 px which equals a dimension of 1417 μm×1417 μm×16 μm). For post-acquisition analysis images were imported into IMARIS software (Bitplane) and volume detection or alternatively quantification of the mean fluorescence intensity, as well as Hoechst-stained cell nuclei were automatically counted by using Imaris' spot detection algorithm. […]

[3] = test system: TGFβ1-induced fibulin-1 ECM deposition in primary human lung IPF-fibroblasts (phLFs); assay: Assessing N23P activity in inhibiting ECM deposition in IPF-fibroblasts (fibulin-1 MFI); type: cell-based; conditions: Homo sapiens, 72 h, 10 μM, TGFβ1 1 ng/ml, MFI
Procedure: phLFs were cultured in DMEM F-12 medium with 20% fetal bovine serum (FBS) and antibiotic supplement as mentioned above. Cells were seeded with 6000 cells/well in 384-well CellCarrier plates (Perkin Elmer, Cat #6007550). Following overnight incubation, cells were starved in serum-reduced medium (1% FBS with 0.1 mM 2-phosphoascorbate (Sigma, Cat #49752)) for 24 h. Afterwards, cells were treated with TGFβ1 (1 ng/ml) or vehicle, and additionally small molecules or appropriate vehicle controls were added. After 72 h of incubation, medium was changed for starving medium with 1 μg/mL AlexaFluor-488 fluorophore conjugated anti-collagen-type-5 antibodies (SantaCruz, Clone C-5, Cat #sc-166155 AF488), 0.66 μg/mL AlexaFluor-555 fluorophore conjugated anti-collagen-type-1 antibodies (Rockland, Cat #600-401-103-0.1), and 1 μg/mL AlexaFluor-637 fluorophore conjugated anti-fibulin 1 antibodies (SantaCruz, Clone C-5, Cat #sc-25281 AF647) and 1 μg/mL Hoechst H33342 (Sigma). Fluorescenceconjugation of the collagen type 1 antibody was done by using the AlexaFluor-555 Protein Labeling Kit (Invitrogen, Cat #A20174) according to manufacturer's instructions. Labeling efficacy was controlled by photometrical means.
Following four hours of incubation, cells were washed three times with PBS and fixed with paraformaldehyde (PFA). For automated liquid handling in 384 well plates, an INTEGRA Assist Plus (INTEGRA, Zizers, Switzerland) equipped with an INTEGRA Viaflo 1I pipette (INTEGRA, Zizers, Switzerland, Cat #4642), 125 μL GripTips™ pipette tips (INTEGRA, Zizers, Switzerland, Cat #6464) and sterile reagent reservoirs (INTEGRA, Cat #4311) were applied. All automated pipetting steps with the INTEGRA Assist Plus were performed at 9.5 μL/s in order to ensure proper integrity and attachment of the deposited ECM to the culturing surface within the wells of the 384-well plates. During cell seeding the automated liquid handling was performed at 89.3 μL/s. Removal of liquids from the well-plates was done by manually inverting the plates.
Following fixation, the automated imaging was achieved by using aconfocal laser scanning microscope (LSM710, Zeiss) with automated focus detection for three-dimensional image acquisition (1024 px×1024 px×9 px which equals a dimension of 1417 μm×1417 μm×16 μm). For post-acquisition analysis images were imported into IMARIS software (Bitplane) and volume detection or alternatively quantification of the mean fluorescence intensity, as well as Hoechst-stained cell nuclei were automatically counted by using Imaris' spot detection algorithm.
Cells were seeded with 6000 cells/well in 384-well CellCarrier plates. After overnight incubation, cells were starved in serum-reduced medium (1% FBS with 0.1 mM 2-phosphoascorbate for 24 h). Then, phLFs were treated with TGFβ1 (1 ng/ml) or vehicle, and incubated together with synthesized N23Ps (10 μM) or appropriate vehicle controls. After 72 h of incubation, medium was changed for starvation medium with 1 μg/mL AlexaFluor-637 fluorophore conjugated anti-fibulin 1 antibodies (SantaCruz, Clone C-5, Cat #sc-25281 AF647) and 1 μg/mL Hoechst H33342 (Sigma). Following four hours of incubation, cells were washed three times with PBS and fixed with paraformaldehyde (PFA). Following fixation, the automated imaging was achieved by using a confocal laser scanning microscope (LSM710, Zeiss) with automated focus detection for three-dimensional image acquisition (1024 px×1024 px×9 px which equals a dimension of 1417 μm×1417 μm×16 μm). For post-acquisition analysis images were imported into IMARIS software (Bitplane) and quantified for the mean fluorescence intensity, as well as Hoechst-stained cell nuclei were automatically counted by using Imaris' spot detection algorithm.
Assessment of ECM inhibition I: Mean fluorescence intensity (MFI) values represented the degree of fibulin-1 ECM deposition in three different IPF-phLFs (n=3). […]

[4] = concomitant treatment with TGFβ1
[5] = one or two different IPF-phLFs (n=1-2)

SMILES: C[C@H]1CCC/C=C/[C@@H]2C[C@H](O)C[C@H]2[C@H](O)/C=C/C(=O)O1 [BrefeldinA]
- secretion of collagen I and fibronectin ([1]; medium supernatants of phLFs): inhibited the secretion

SMILES: CCOC(=O)c1ccc(O)c(O)c1 [EDHB, Ethyl-3,4-dihydroxy-benzoate]
- expression of intracellular collagen I, collagen V and fibulin 1 [1, 4]: statistically significant suppression
- secreted collagen I [1, 4]: significant suppression
- ECM deposition of collagen I, collagen V and fibulin 1 [2]: inhibits the ECM deposition

SMILES: O=C(/C=C/c1ccc2c(c1)OC(F)(F)O2)Nc1ccc(F)c(F)c1OCCC1CC1 [Example 156, (E)-N-(2-(2-cyclopropylethoxy)-3,4-difluorophenyl)-3-(2,2-difluorobenzo[d][1,3]dioxol-5-yl)acrylamide]
- inhibition at 10 µM [3, 5]: 60 to 90%

SMILES: C#CCCOc1ccccc1NC(=O)/C=C/c1ccc(OC)cc1 [Example 46, (E)-N-(2-(but-3-yn-1-yloxy)phenyl)-3-(4-methoxyphenyl)acrylamide]
- inhibition at 10 µM [3, 5]: 20 to 60%

SMILES: COc1ccc(/C=C/C(=O)Nc2ccccc2OCc2ccccc2)cc1 [Example 12, (E)-N-(2-(benzyloxy)phenyl)-3-(4-methoxyphenyl)acrylamide]
- inhibition at 10 µM ([3]; three different IPF-phLFs (n=3)): > 90%
